Tests used:
[1] = Clinical Experiment II, double blind: blood pressure; assay type: in vivo, human patients; conditions: for Maximum Pressure, Average Value, all patients / Maximum Pressure, Average Value, patients of hypertension / Maximum Pressure, Average Value, no hypotensive agent in combination with TN / Maximum Pressure, Average Value, hypotensive agent administered in combination with TN: in mmHg (unit assumed)
Experimental: Results of the clinical experiment conducted according to the double blind method in a different hospital will now be described.
75 patients of hypertension or arteriosclerosis having subjective symptoms were tested. Some of them suffered from complications such as ischemia heart disease and cerebral thrombosis. They are detailed in Table 11.
Two capsules were administered at one time, and the administration was conducted 3 times per day after eating. The duration of the continuous administration was 4 weeks. Combined use of drugs having the same functions as those of TN (vitamin E drugs, nicotinic acid, its derivatives and peripheral vasolidators) and minor tranquilizers was prohibited.
(a) Results of Blood Pressure Test: Variations of the blood pressure in all the patients and in the patients of hypertension alone are shown in Tables 12 and 13.
The change of the blood pressure in the patients of hypertension to whom a hypotensive agent was administrated in combination with TN is shown in Table 14, and the change of the blood pressure in the patients to whom no hypotensive agent was administrated in combination with TN is shown in Table 15.
In each of the foregoing Tables, N indicates the number of the patients, and S.D. denotes the standard deviation.

[2] = Experiment on young SHR (rats of spontaneous hypertension); assay type: in vivo, rats (7-week-old female SHR); conditions: for dead rats within 6 weeks from the start of the administration: control 5 among 11; for dead rats within 2 weeks from the start of administration: judged pneumonia, control 3
Experimental: (§1) Experiments were conducted by using two classes of rats of spontaneous hypertension (hereinafter referred to as "SHR"; provided by Nippon Rat K.K.) differing in the age. In the first experiment, 9-month-old chronic […] SHR (hereinafter referred to as "old SHR"), and in the second experiment, 7-week-old SHR in which hypertension was advancing (hereinafter referred to as "young SHR") was used.
(B) Experiment on Young SHR:
72 of 7-week-old female SHR (having a body weight of 130 to 175 g) were divided into 9 cages, each consisting of 8 rats. Service water was given as drinking water to rats of two cages among these 9 cages, and these rats were compared with other rats which were given a 1% aqueous solution of sodium chloride as drinking water. In each of the […] cages of rats to which the sodium chloride solution was given, no agent was administered to 2 of 8 rats, 20 mg/Kg of TN was administered to another 2 rats, 100 mg/Kg of TN was administered to still another 2 rats, and 88 mg/Kg of TA was administered to the remaining 2 rats.
After 2 weeks' feeding with the sodium chloride solution, administration was conducted once a day. Within 2 weeks from the start of administration,3 rats in the Control (non-administered) group, one rat in the 20 mg/Kg TN administered group, 3 rats in the 100 mg/Kg TN administered group, 3 rats in the 88 mg/Kg TA administered group and 4 rats in the service water given group were dead. In view of the body weight decrease and the snivel secretion and from the results of autopsy, it was judged that each of them died of pneumonia. The rats that died prior to initiation of the administration were not taken in account in evaluating the experimental results.

[3] = Hypotensive effect on rats of spontaneous hypertension, old SHR; assay type: in vivo, rats (9-month-old male SHR); conditions: 100 mg/kg TN orally once a day
Experimental: (B) Hypotensive Effect on Rats of Spontaneous Hypertension:
as §1
(1) Experiment on Old SHR:
40 of 9-month-old male SHR (having a body weight of 360 to 450 g) were divided into 10 groups, each consisting of 4 rats, and each group was placed in a cage. One of the rats in each cage was used as the non-administered control animal, and 20 mg/Kg of TN, 100 mg/Kg of TN and 88 mg/Kg of TA (equimolar to 100 mg/Kg of TN) were administered to the remaining 3 rats, respectively. Each hypotensive agent was orally administered once a day over a period of 4 weeks in the form of a suspension in gum arabic. Gum arabic solution was administered to the Control (non-administered) group. Simultaneously with initiation of the administration, drinking water was exchanged from service water to a 1% aqueous solution of sodium chloride.

[4] = conclusion of both clinical experiments

SMILES: Cc1c(C)c2c(c(C)c1OC(=O)c1cccnc1)CCC(C)(CCCC(C)CCCC(C)CCCC(C)C)O2 (racemic) [TN, dl-α-tocopheryl nicotinate]
- hypotensive effect as compared with the P group ([1]; Tables 12 to 15, hypertension alone significant at level lower than 5%): the hypotensive effect was attained in the TN administrated group as compared with the P group
- Maximum Pressure, Average Value, all patients ([1]; after administration (200 mg TN 3 times per day, 4 weeks), N 35, S.D. ±23.65): 141.40
- Minimum Pressure, Average Value, patients of hypertension ([1]; after administration (4 weeks), N 22, S.D. ±13.08): 87.45
- Maximum Pressure, Average Value, patients of hypertension ([1]; after administration (4 weeks), N 22, S.D. ±20.69, P < 0.05): 148.59
- Minimum Pressure, Average Value, all patients ([1]; after administration (4 weeks), N 35, S.D. ±13.64): 81.89
- Minimum Pressure, Average Value, no hypotensive agent in combination with TN ([1]; after administration, N 8, S.D. ±13.34): 87.50
- Maximum Pressure, Average Value, no hypotensive agent in combination with TN ([1]; after administration, N 8, S.D. ±19.95, P < 0.1): 146.13
- Minimum Pressure, Average Value, hypotensive agent administered in combination with TN ([1]; after administration, N 14, S.D. ±13.44): 87.43
- Maximum Pressure, Average Value, hypotensive agent administered in combination with TN ([1]; after administration, N 14, S.D. ±21.71): 150.00
- Minimum Pressure, Average Value, no hypotensive agent in combination with TN ([1]; before administration, N 8, S.D. ±16.40): 87.75
- Maximum Pressure, Average Value, no hypotensive agent in combination with TN ([1]; before administration, N 8, S.D. ±22.60): 161.50
- Minimum Pressure, Average Value, hypotensive agent administered in combination with TN ([1]; before administration, N 14, S.D. ±10.75): 89.71
- Maximum Pressure, Average Value, hypotensive agent administered in combination with TN ([1]; before administration, N 14, S.D. ±17.29): 159.29
- Minimum Pressure, Average Value, patients of hypertension ([1]; before administration, N 22, S.D. ±12.74): 89.00
- Maximum Pressure, Average Value, patients of hypertension ([1]; before administration, N 22, S.D. ±18.88): 160.09
- Minimum Pressure, Average Value, all patients ([1]; before administration, N 38, S.D. ±14.78): 81.37
- Maximum Pressure, Average Value, all patients ([1]; before administration, N 38, S.D. ±25.14): 144.63
- efficacy and safety conclusion [1, 4]: very effective and safe hypotensive agent
- hypotensive effect on patients of hypertension versus P group [1, 4]: higher in the TN administered group than in the P group
- effect durability ([1]; general conclusion): high effect durability
- dead rats within 6 weeks from the start of the administration ([2]; 20 mg/kg TN, among 13 rats): 3 rats
- dead rats within 2 weeks from the start of administration ([2]; 20 mg/kg TN): one
- dead rats within 6 weeks from the start of the administration ([2]; 100 mg/kg TN, among 11 rats): 4 rats
- dead rats within 2 weeks from the start of administration ([2]; 100 mg/kg TN): 3 rats
- difference of the blood pressure between control and administered group ([3]; 3rd week): about 30 mm Hg
- lowering of blood pressure on the average ([3]; after 1 week): 15 mm Hg

— patent US4088778A, “Method for the treatment of hypertension” (priority 1975, dated 1978)
